# Earlier results, collected in patent US20090010992A1 (priority 2007, published 2009).
# Conditions: oral cherry-flavored syrup (Versed syrup)
structure (smiles),measurement,value
Cc1ncc2n1-c1ccc(Cl)cc1C(c1ccccc1F)=NC2 [midazolam],bioavailability (erratic),30-50%
